This is an account of results in patent publication US6413967B1, “Inhibition of novel calcium entry pathway in electrically non-excitable cells acting as an anti-proliferative therapy” (The University of Virginia Patents Foundation, priority 1995, dated 2002).

The subject of assay [1] is IL-2 production by Jurkat cells. Briefly: interleukin-2 production with CT-EV bioassay. It counts as cell-based, human. The method, then: Jurkat cells were suspended at a concentration of 2×10^6 cells/ml in serum-free RPMI-1640 containing 100 U/ml penicillin and 100 μg/ml streptomycin. Cells were treated for 15 min with the appropriate compound to be tested prior to stimulation with 1 μg/ml PHA plus 10 nM PDB (calcium-independent) or with PHA alone (calcium dependent). The cells were then incubated for 2 h at 37° C. Following the 2 h stimulation period, the cells were washed twice with RPMI-1640 supplemented with 5% FBS with 5 min incubations between washes and were resuspended at 2×10^6 cells/ml. The cell suspensions were placed in wells of 24 well plates and were incubated at 37° C. for 24 h. At the end of the incubation, the suspensions were collected, the cells were pelleted and the supernatant was stored at 4° C. for later assay for IL-2 levels. […] Standard curves were generated by addition of known amounts of recombinant human IL-2 (BioWhittaker) to allow determination of IL-2 content in each sample. Plates were then incubated at 37° C. for 48 h. To determine proliferation of CTEV cells, 1 μCi of [^3H]-Thymidine (6.7 Ci/mmol; New England Nuclear) was added to each well for the final 16 hours of the assay and at 48 h the cells were harvested and incorporated ^3H was counted by liquid scintillation counting.

For another assay, the system named is human PBMC. Briefly: lymphocyte proliferation, 3H-thymidine incorporation. It counts as cell-based. The protocol: Human PBMC were isolated from peripheral blood obtained from healthy donors. Cells were washed twice and were placed in triplicate wells at a concentration of 1×10^5 cells/ml in serum-free RPMI-1640 supplemented with 100 U of both penicillin and streptomycin. Drug treatments were added 15 minutes before stimulation of the cells and were present throughout the 1 hour stimulation period. Stimulation by mitogen (1 μg/ml PHA) in combination with 10 nM phorbol dibutyrate (PDB) was carried out for 1 hour at 37° C. Cells were subsequently washed 3 times with RPMI and were resuspended at a concentration of 1×10^5 cells/ml in RPMI-1640 supplemented with 5% FBS and 100 U/ml of penicillin and 100 μg/ml streptomycin. For the 48 hour proliferation phase, cells were cultured with (Ca^2+-independent proliferation) or without (Ca^2+-dependent proliferation) 10 nM PDB. 1 μCi of [^3H]-Thymidine (6.7 Ci/mmol; New England Nuclear, Boston, Mass.) was added to each well for the final 16 hours of the assay and at 48 h the cells were harvested and incorporated ^3H was counted by liquid scintillation counting.
On the technique in general: Uptake of a labelled nucleoside into DNA is a usual measure of proliferation.

Assay [2] deals with VG Ca^2+ current in Jurkat cells. Kind of assay: perforated patch clamp, voltage gated (VG) Ca2+ current. As to conditions: Homo sapiens, 10 μM NDGA. It counts as cell-based, human. The protocol: All recordings were performed using the perforated patch method (Horn et al, J. Gen. Physiol. (1988) 92:145) of the gigaseal patch clamp technique (Hammil et al, Pflugers Arch (1981) 391:85) with microelectrodes of 5-10 megohm series resistance. In all solutions for voltage clamp, K^+ was replaced with Cs^+ to block outward K^+ currents (Fox et al, J. Physiol. (Lond.) (1987) 392:149). The bath solution contained (in mM): NaCl, 155; CsCl, 4.5; CaCl2, 2; MgCl2, 1; D-glucose, 5; HEPES, 10 (pH 7.4 with NaOH). The pipette solution contained (in mM): CsCl, 55; Cesium methanesulfonate, 70; CaCl2, 1; MgCl2, 7; HEPES, 10 (pH 7.3 with NaOH). Nystatin was made as a stock solution of 6 mg/100 μl DMSO, and 2 μl of the stock was added to 1 ml of the pipette solution for use. Both pipette and bath solutions were 290-300 mOsm. Experiments were performed on cells at room temperature using the Axopatch-1D patch clamp (Axon Instruments, Foster City, Calif.) after correction of junction potentials and leak subtraction. Records were low-pass filtered at 500 Hz, and the data were collected, stored and analyzed using the pClamp software program (Axon Instruments). For the non-voltage gated current traces, data is presented either as the tracing from a chart recorder or from the digital data in which the current was measured at 5 second intervals and plotted as individual points.
(Patch clamp records ionic current or voltage across a cell membrane.)

For assay [3], the system named is MDA-468 human breast cancer cells. Briefly: MDA-468 cell proliferation, tetrazolium dye. It counts as cell-based. As to conditions: human breast cancer cell proliferation, 48 hours. The protocol:
(§1) The effect of various drugs on the proliferation of Jurkat T cells, MDA-468 human breast cancer cells and PC3 human prostate cancer cells was determined by incubating the cells with the indicated concentrations of drug for 48 hours. The number of viable cells remaining at the end of the incubation period was evaluated using the procedure outlined in Example 4.
(§2) Cells are plated in triplicate in a 96-well flat-bottomed plate (Jurkat: 5e4 cells/well in RPMI-1640 plus 5% fbs; MDA468: 2.5e4 per well in DMEM plus 5% fbs and 11 μg/ml insulin) in the absence (control) or presence of drug at 3, 10, 30, and 100 μM. An additional control of 100 μM drug in RPMI-1640 plus 5% fbs or DMEM plus 5% fbs and 11 μg/Ml insulin with no cells is included with each run to control for possible drug interactions with the dye. The plate is then placed in a 5% CO2 37° C. incubator for 44 to 48 hours. 20 μl of dye solution containing a tetrazolium dye (3-(4,5-dimethylthiazol-2-yl)-5-(3-carboxymethoxyphenyl)-2-(4-sulfophenyl)-2H-tetrazolium, Owen's reagent) plus coupling reagent (phenazine methosulfate) is added to each well, the plate is returned to the incubator, and the absorbance at 490 nm is read using an ELISA plate reader 3 to 4 h (Jurkat cells) or 2 to 3 h (MDA-468 cells) later. All data are presented as percent of control (no drug addition). With this protocol, it is possible to determine the effect of 5 drugs at 4 concentrations in a single 96-well plate as outlined below: […]

In another assay the test system is Jurkat T cells. Briefly: Jurkat cell proliferation, tetrazolium dye. It counts as cell-based, human. As to conditions: 48 hours. The method, then: as §1, §2

What is called inhibition is the share of the control response that was lost under treatment. For the molecule `CC(Cc1ccc(O)c(O)c1)C(C)Cc1ccc(O)c(O)c1` (centres unmarked) [NDGA, 4,4′-(2,3-dimethyl-1,4-butanediyl)bis[1,2-benzenediol]], in assay [1], the “effect on IL-2 secretion, Ca^2+-dependent stimulation” value was “suppressed” and the “effect on IL-2 secretion, stimulus not initially requiring extracellular Ca^2+” value is recorded as “little effect”. The IC50 in the assay with human PBMC (Ca^2+-dependent protocol (PHA/PDB 1 h, then medium 48 h), n=6, read-out: IC50 for inhibition of proliferation) is ~3 µM. Besides, in the assay on human PBMC (PHA/PDB 1 h then PDB 48 h), the “effect on Ca^2+-independent proliferation” value was “no effect”. For the same molecule, in the assay with human PBMC (PHA/PDB 1 h then medium alone 48 h), the “effect on Ca^2+-dependent proliferation” value is “inhibited proliferation”. Moreover, the inhibition at 10 µM in assay [2] is ~70%. For the same molecule, the “MDA PROLIF” value in assay [3] was “↓”. Further, in the assay with Jurkat T cells, the “T cell PROLIF” value is “↓”.
